{"source": "patent US8192962B2", "about": "“Processes for detecting toxic substances” (Daikin Industries, Ltd., priority 2001, dated 2012)", "test_system": "Genes belonging to other category", "experiment": "DNA chip mRNA expression in yeast, genes belonging to other category (Table 9)", "assay_type": "cell-based, Saccharomyces cerevisiae S288C", "how_it_was_run": "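Untreated cultures served as reference for log-phase S288C yeast given a growth-inhibiting, non-lethal toxicant dose for 2 h at 25° C. in YPD. Gene expression was measured on a whole-genome DNA chip from Cy3/Cy5-labeled cDNA.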"}
{"smiles": "N#Cc1c(Cl)c(Cl)c(Cl)c(C#N)c1Cl", "note": "[(9), 2,4,5,6-tetrachloro-1,3-benzenedicarbonitrile]", "values": [{"measurement": "The level of expressed mRNA in the presence of chemical substance/The level of expressed mRNA in the absence of chemical substance", "setting": "yeast gene YJR091C", "value": 2.4}, {"measurement": "The level of expressed mRNA in the presence of chemical substance/The level of expressed mRNA in the absence of chemical substance", "setting": "yeast gene YJR099W", "value": 1.4}, {"measurement": "The level of expressed mRNA in the presence of chemical substance/The level of expressed mRNA in the absence of chemical substance", "setting": "yeast gene YJR110W", "value": 4.9}, {"measurement": "The level of expressed mRNA in the presence of chemical substance/The level of expressed mRNA in the absence of chemical substance", "setting": "yeast gene YJR122W", "value": 5.3}, {"measurement": "The level of expressed mRNA in the presence of chemical substance/The level of expressed mRNA in the absence of chemical substance", "setting": "yeast gene YKL008C", "value": 0.3}, {"measurement": "The level of expressed mRNA in the presence of chemical substance/The level of expressed mRNA in the absence of chemical substance", "setting": "yeast gene YKL013C", "value": 1.5}, {"measurement": "The level of expressed mRNA in the presence of chemical substance/The level of expressed mRNA in the absence of chemical substance", "setting": "yeast gene YKL039W", "value": 1.3}, {"measurement": "The level of expressed mRNA in the presence of chemical substance/The level of expressed mRNA in the absence of chemical substance", "setting": "yeast gene YKL041W", "value": 1.6}, {"measurement": "The level of expressed mRNA in the presence of chemical substance/The level of expressed mRNA in the absence of chemical substance", "setting": "yeast gene YKL079W", "value": 2.3}, {"measurement": "The level of expressed mRNA in the presence of chemical substance/The level of expressed mRNA in the absence of chemical substance", "setting": "yeast gene YKL096W", "value": 0.0}, {"measurement": "The level of expressed mRNA in the presence of chemical substance/The level of expressed mRNA in the absence of chemical substance", "setting": "yeast gene YKL139W", "value": 1.6}, {"measurement": "The level of expressed mRNA in the presence of chemical substance/The level of expressed mRNA in the absence of chemical substance", "setting": "yeast gene YKL165C", "value": 0.4}, {"measurement": "The level of expressed mRNA in the presence of chemical substance/The level of expressed mRNA in the absence of chemical substance", "setting": "yeast gene YKL193C", "value": 1.0}, {"measurement": "The level of expressed mRNA in the presence of chemical substance/The level of expressed mRNA in the absence of chemical substance", "setting": "yeast gene YKL196C", "value": 4.3}, {"measurement": "The level of expressed mRNA in the presence of chemical substance/The level of expressed mRNA in the absence of chemical substance", "setting": "yeast gene YKR014C", "value": 2.4}, {"measurement": "The level of expressed mRNA in the presence of chemical substance/The level of expressed mRNA in the absence of chemical substance", "setting": "yeast gene YKR068C", "value": 2.4}, {"measurement": "The level of expressed mRNA in the presence of chemical substance/The level of expressed mRNA in the absence of chemical substance", "setting": "yeast gene YLL054C", "value": 2.4}, {"measurement": "The level of expressed mRNA in the presence of chemical substance/The level of expressed mRNA in the absence of chemical substance", "setting": "yeast gene YLR080W", "value": 2.3}, {"measurement": "The level of expressed mRNA in the presence of chemical substance/The level of expressed mRNA in the absence of chemical substance", "setting": "yeast gene YLR093C", "value": 1.5}, {"measurement": "The level of expressed mRNA in the presence of chemical substance/The level of expressed mRNA in the absence of chemical substance", "setting": "yeast gene YLR118C", "value": 1.1}, {"measurement": "The level of expressed mRNA in the presence of chemical substance/The level of expressed mRNA in the absence of chemical substance", "setting": "yeast gene YLR120C", "value": 1.8}, {"measurement": "The level of expressed mRNA in the presence of chemical substance/The level of expressed mRNA in the absence of chemical substance", "setting": "yeast gene YLR136C", "value": 0.9}, {"measurement": "The level of expressed mRNA in the presence of chemical substance/The level of expressed mRNA in the absence of chemical substance", "setting": "yeast gene YLR178C", "value": 4.3}, {"measurement": "The level of expressed mRNA in the presence of chemical substance/The level of expressed mRNA in the absence of chemical substance", "setting": "yeast gene YLR206W", "value": 1.5}, {"measurement": "The level of expressed mRNA in the presence of chemical substance/The level of expressed mRNA in the absence of chemical substance", "setting": "yeast gene YLR248W", "value": 2.3}, {"measurement": "The level of expressed mRNA in the presence of chemical substance/The level of expressed mRNA in the absence of chemical substance", "setting": "yeast gene YLR250W", "value": 2.7}, {"measurement": "The level of expressed mRNA in the presence of chemical substance/The level of expressed mRNA in the absence of chemical substance", "setting": "yeast gene YLR251W", "value": 2.1}, {"measurement": "The level of expressed mRNA in the presence of chemical substance/The level of expressed mRNA in the absence of chemical substance", "setting": "yeast gene YLR327C", "value": 3.0}, {"measurement": "The level of expressed mRNA in the presence of chemical substance/The level of expressed mRNA in the absence of chemical substance", "setting": "yeast gene YLR356W", "value": 2.3}, {"measurement": "The level of expressed mRNA in the presence of chemical substance/The level of expressed mRNA in the absence of chemical substance", "setting": "yeast gene YLR362W", "value": 3.5}, {"measurement": "The level of expressed mRNA in the presence of chemical substance/The level of expressed mRNA in the absence of chemical substance", "setting": "yeast gene YLR389C", "value": 2.4}, {"measurement": "The level of expressed mRNA in the presence of chemical substance/The level of expressed mRNA in the absence of chemical substance", "setting": "yeast gene YLR391W", "value": 0.4}, {"measurement": "The level of expressed mRNA in the presence of chemical substance/The level of expressed mRNA in the absence of chemical substance", "setting": "yeast gene YLR429W", "value": 0.9}, {"measurement": "The level of expressed mRNA in the presence of chemical substance/The level of expressed mRNA in the absence of chemical substance", "setting": "yeast gene YMR004W", "value": 94.2}, {"measurement": "The level of expressed mRNA in the presence of chemical substance/The level of expressed mRNA in the absence of chemical substance", "setting": "yeast gene YMR027W", "value": 1.1}, {"measurement": "The level of expressed mRNA in the presence of chemical substance/The level of expressed mRNA in the absence of chemical substance", "setting": "yeast gene YMR053C", "value": 2.2}, {"measurement": "The level of expressed mRNA in the presence of chemical substance/The level of expressed mRNA in the absence of chemical substance", "setting": "yeast gene YMR077C", "value": 1.9}, {"measurement": "The level of expressed mRNA in the presence of chemical substance/The level of expressed mRNA in the absence of chemical substance", "setting": "yeast gene YMR091C", "value": 2.1}, {"measurement": "The level of expressed mRNA in the presence of chemical substance/The level of expressed mRNA in the absence of chemical substance", "setting": "yeast gene YMR094W", "value": "−0.1"}, {"measurement": "The level of expressed mRNA in the presence of chemical substance/The level of expressed mRNA in the absence of chemical substance", "setting": "yeast gene YMR104C", "value": 0.6}, {"measurement": "The level of expressed mRNA in the presence of chemical substance/The level of expressed mRNA in the absence of chemical substance", "setting": "yeast gene YMR110C", "value": 2.3}, {"measurement": "The level of expressed mRNA in the presence of chemical substance/The level of expressed mRNA in the absence of chemical substance", "setting": "yeast gene YMR112C", "value": 1.4}, {"measurement": "The level of expressed mRNA in the presence of chemical substance/The level of expressed mRNA in the absence of chemical substance", "setting": "yeast gene YMR139W", "value": 2.8}, {"measurement": "The level of expressed mRNA in the presence of chemical substance/The level of expressed mRNA in the absence of chemical substance", "setting": "yeast gene YMR197C", "value": 1.9}, {"measurement": "The level of expressed mRNA in the presence of chemical substance/The level of expressed mRNA in the absence of chemical substance", "setting": "yeast gene YMR219W", "value": 2.3}, {"measurement": "The level of expressed mRNA in the presence of chemical substance/The level of expressed mRNA in the absence of chemical substance", "setting": "yeast gene YMR226C", "value": 2.6}, {"measurement": "The level of expressed mRNA in the presence of chemical substance/The level of expressed mRNA in the absence of chemical substance", "setting": "yeast gene YMR238W", "value": 1.3}, {"measurement": "The level of expressed mRNA in the presence of chemical substance/The level of expressed mRNA in the absence of chemical substance", "setting": "yeast gene YMR262W", "value": 3.0}, {"measurement": "The level of expressed mRNA in the presence of chemical substance/The level of expressed mRNA in the absence of chemical substance", "setting": "yeast gene YMR275C", "value": 2.4}, {"measurement": "The level of expressed mRNA in the presence of chemical substance/The level of expressed mRNA in the absence of chemical substance", "setting": "yeast gene YMR276W", "value": 1.8}]}
